These results are taken from patent US8507660B2 (priority 2009, dated 2013).

A short description of the data set: Storage stability of sialyl phosphate donors. The format is physicochemical. The conditions noted are these: −20° C., several months. On the procedure: The reaction was complete in 5 h to give a mixture of α- and β-anomers. The sialyl α-phosphate 2a and sialyl β-phosphate 2b can be easily separated by silica gel column chromatography and are both stable at −20° C. for several months.

SMILES strings stand for the structures.

`CCCCOP(=O)(OCCCC)OC1(C(=O)OC)CC(OC(C)=O)[C@@H](NC(C)=O)C([C@H](OC(C)=O)[C@@H](COC(C)=O)OC(C)=O)O1` (stereo partly shown) [2a]: the stability on storage result was “stable”.
